From the NIST ThermoML archive (doi:10.1016/j.tca.2013.05.015)

Assay: mn = molality of the nth substance listed, in mol/kg
Settings: 101 kPa, Liquid; for speed of sound: Sing-around technique in a fixed-path interferometer; for mass density: Vibrating tube method

CCCCCCCC[N+](C)(CCCCCCCC)CCCCCCCC.O=S(=O)([N-]S(=O)(=O)C(F)(F)F)C(F)(F)F + CCO
Settings	mass density, 298.15 K [kg/m3]	mass density, 303.15 K [kg/m3]	mass density, 308.15 K [kg/m3]	mass density, 313.15 K [kg/m3]	speed of sound, 298.15 K [m/s]	speed of sound, 303.15 K [m/s]	speed of sound, 308.15 K [m/s]	speed of sound, 313.15 K [m/s]
m1 = 0.022	787.5	783.3	778.6	774	1150	1129	1099	1087
m1 = 0.0465	790.5	786.3	781.5	777	1151	1130	1100	1088
m1 = 0.0692	793.7	789.3	784.3	779.5	1152	1131	1101	1089
m1 = 0.1378	805.5	801.2	797	792.6	1154	1134	1116	1104
m1 = 0.2691	825.5	821.5	816.6	812	1158	1140	1122	1110
m1 = 0.4006	844.7	840.6	836.4	832.3	1170	1149	1134	1116
m1 = 0.6112	868.3	864.6	860.4	856.3	1176	1158	1140	1125
m1 = 0.8299	883.8	879.9	875.8	866.2	1179	1161	1146	1131
m1 = 1.008	892.6	888.9	884.8	880.7	1182	1164	1149	1134
m1 = 1.28	910.2	906.5	902.4	898.3	1188	1170	1158	1146

CCCCCCCC[N+](C)(CCCCCCCC)CCCCCCCC.O=S(=O)([N-]S(=O)(=O)C(F)(F)F)C(F)(F)F + CCOC(C)=O
Settings	mass density, 298.15 K [kg/m3]	mass density, 303.15 K [kg/m3]	mass density, 308.15 K [kg/m3]	mass density, 313.15 K [kg/m3]	speed of sound, 298.15 K [m/s]	speed of sound, 303.15 K [m/s]	speed of sound, 308.15 K [m/s]	speed of sound, 313.15 K [m/s]
m1 = 0.0193	897	891.1	885.3	878.9	1142	1119	1097	1074
m1 = 0.0434	900	894.1	888.3	882	1143	1120	1098	1076
m1 = 0.0692	903	897.1	891.3	885	1144	1122	1104	1077
m1 = 0.1377	910.7	904.8	899.1	892.9	1149	1125	1107	1080
m1 = 0.2691	923.8	918	912.4	906.5	1152	1128	1110	1083
m1 = 0.4006	935.1	929.4	924	918.3	1155	1131	1113	1086
m1 = 0.6119	950.4	944.9	939.7	934.5	1161	1140	1116	1092
m1 = 0.8299	963.4	958.3	953.3	948.4	1164	1146	1122	1098
m1 = 1.006	972.5	967.5	962.6	957.9	1170	1158	1128	1107
m1 = 1.28	984.5	979.7	974.8	970.2	1179	1161	1137	1113
m1 = 2.132	1011.1	1006.9	1001.9	997	1200	1170	1152	1131
m1 = 2.999	1029.3	1025.5	1019.5	1013.8	1206	1182	1161	1140
